Data published in patent US9023848B2 (Bionomics Limited, priority 2012, dated 2015).
Values after ≈ are worked out from the molar mass of the structure shown.

Tests used:
mice [1] = experiment: Marble Burying; format: in vivo; conditions: per os 1 hour before the test
From the text: The Marble Burying test is used as a model for both anxiety and obsessive compulsive disorders. Mice have a natural tendency to bury marbles under the bedding when placed in a cage with rows of evenly spaced marbles on the floor. Suppression of this spontaneous burying has been used as a measure of anxiolytic drug action. Mice pre-treated with benzodiazepines and different classes of antidepressants bury less marbles when compared to the control mice
The apparatus consists of transparent polycarbonate cages (30 cm×18 cm×19 cm) containing a 5 cm layer of fine sawdust bedding and 20 glass marbles (diameter: 1.5 cm) spaced evenly along the walls of the cage. Each animal is placed individually in the cage where it remains for a 20 min test session. On termination of the test session the animals are removed from the cage and the number of marbles at least two-thirds buried in the sawdust is recorded.
(§1) Test compound was prepared in aqueous vehicle containing 0.5% w/v hydroxypropylmethyl cellulose, 0.5% v/v benzyl alcohol and 0.4% v/v Tween 80. It was administrated per os 1 hour before the implementation of the test.

Kinetic solubility = format: physicochemical; conditions: kinetic from dmso stock
mice [2] = experiment: Modified Open Field (Dark), sedative or stimulating effect; format: in vivo; conditions: tested at 5-100 mg/kg, per os 1 hour before the test
From the text: The open field (dark) is used to measure the spontaneous motor activity of mice in a quiet, dark environment. This system is useful for discriminating the sedating or stimulating properties of test compounds on spontaneous locomotion and can thus provide a preliminary indication of potentially adverse effects such as sedation.
The apparatus is an open plexiglass cage (52×52 cm) with 40 cm walls. The animal's movements are tracked by a computerised video tracking system, consisting of an overhead camera, diode sensors placed underneath the floor of the cage, computer and video analyser software (ViewPoint, France). The video camera is placed at 2.50 m above the cage and connected to the computer via a video capture card (Pinnacle Systems, France). The video tracking system is set in a way that the floor of the OF is divided into nine equal squares. The total number of crossed squares and the total walked distance are recorded.
Each animal is singly placed in a corner of the apparatus and its locomotor activity is automatically recorded over a period of 20 minutes.
The apparatus is cleaned between each animal with alcohol (70%).
as §1

mice [3] = experiment: Forced Swim Test (antidepressant properties); format: in vivo; conditions: per os 1 hour before the test
From the text: The forced swim test is the most widely used paradigm for the evaluation of potential antidepressant effect of drugs. Animals placed in a container filled with water show periods of increased swimming activity and periods of relative immobility. Immobile posture reflects a state of tiredness, fatigue, reduced stamina or a lowered mood (hopelessness) similar to the core symptoms observed in depressed patients and in individuals under intense stress. […] The test has some predictive value for anti-depressant drugs. The apparatus consists of a glass cylinder (height 35 cm; diameter 24 cm) filled with water (depth: 25 cm, temperature: 25±1° C.).
as §1

logD7.4 = format: physicochemical; conditions: pH 7.4
cortical neurons = experiment: Neurite outgrowth assay; format: cell-based; conditions: rat cortical neurons, 3 days exposure, tested at 1 nM, 10 nM and 100 nM
Protocol: Female rats of 17 days gestation were killed by cervical dislocation and the foetuses were removed from the uterus. Their brains were placed in ice-cold medium of Leibovitz (L15, Gibco, Fisher bioblock, France). Cortex were dissected and meninges were carefully removed. The cortical neurons were dissociated by trypsinization for 30 min at 37° C. (trypsin-EDTA Gibco) in presence of 0.1 mg/ml DNAse I (Roche, France). The reaction was stopped by addition of Dulbecco's Modified Eagle Medium (DMEM; Gibco) with 10% of fetal bovine serum (FBS; Gibco). The suspension was triturated with a 10-ml pipette and using a 21G needle and syringe, and centrifuged at 350×g for 10 min at room temperature. The pellet of dissociated cells was resuspended in medium consisting of Neurobasal (Gibco) supplemented with 2% B27 supplement (Gibco), 0.5 mM L-Glutamine (Gibco), an antibiotic-antimicotic mixture. Viable cells were counted in a Neubauer cytometer using the trypan blue exclusion test (Sigma). Cells were seeded on the basis of 30000 cells per Petri dish (ø35 mm, Nunc) precoated with poly-L-lysine. […]
A global analysis of the data was performed using a one way analysis of variance (ANOVA), followed by Fisher's Protected Least Significant Difference when applicable. […] All results were expressed as mean±sem. […]

rat = experiment: Elevated Plus Maze; format: in vivo; conditions: per os 1 hour before the test
From the text: The Elevated Plus Maze (EPM) situation rests on the conflict between the innate tendencies of rodents to explore novel environments and avoid open and brightly lit areas. In this task the mouse is placed in the centre of the maze. From here it can walk down any of four runways. Two of the arms are well lit and open, and the other two are enclosed and dimly lit. Mice prefer the closed arms but will venture out into the open arms. The amount of time spent in the open arms and the number of times the mice enter the open arms are recorded. The total walked distance in the open arms is also recorded. “Anxious” mice will spend little time in the open arms and make very few entries into the open arms.
The apparatus is made of polyvinylchloride materials and consists of four equal exploratory arms (45×10 cm) which are all interconnected by a small platform (10×10 cm). Two arms are open and two others are closed with walls (30 cm high). The apparatus is placed 66 cm above the floor. A videotracking system is used to record the test (ViewPoint, France). […]
A trial consists of placing an animal on the central platform facing a closed arm. The number of entries and the duration spent in open arms are automatically recorded by a videotrack system during an 5 minutes period. […]

mice [4] = experiment: Light Dark Box test (anxiolytic effect); format: in vivo; conditions: per os 1 hour before the test
From the text: The light dark paradigm is based on a conflict between the innate aversion of rodents to brightly illuminated areas and on the spontaneous exploratory behaviour of the mice. If given a choice between a large brightly compartment versus a small dark compartment they spontaneously prefer the dark part.
The apparatus consists of two PVC (polyvinylchloride) boxes (19×19×15 cm) covered with Plexiglas. One of these boxes is darkened. The other box is illuminated by 100 W desk lamp placed 15 cm above and providing an illumination of about 4400 Lux. An opaque plastic tunnel (5×7×10 cm) separates the dark box from the illuminated one.
Animals were placed individually in the lit box, with head directed towards the tunnel. The time spent in the lit box and the number of transitions between the two boxes was recorded over a 5 min period after the first entry of the animal in the dark box. The total walked distance in the lit box was also recorded. Animals scored without entry into the […] were excluded from the analysis.
as §1

Structure (SMILES) | Marble Burying MED (Minimum Effective Dose) (mice [1]) | solubility kinetic (Kinetic solubility; pH 2, simulated gastric fluid) [µg/mL] | solubility kinetic (Kinetic solubility; pH 6.5, aqueous buffer) [µg/mL] | Open Field (Dark) sedation (mice [2]) | Forced Swim Test MED (Minimum Effective Dose) (mice [3]) | logD (logD7.4) | Neurite outgrowth: significant effect at concentrations (cortical neurons) | Elevated Plus Maze MED (Minimum Effective Dose) (rat) | Light Dark Box MED (Minimum Effective Dose) (mice [4])
Cc1nc2ccc(NC3Cc4ccccc4C3)cc2c(-c2ccccc2)c1C(=O)O [Example 1, 6-(2,3-dihydro-1H-inden-2-ylamino)-2-methyl-4-phenylquinoline-3-carboxylic acid] | MED 0.1 mg/kg | 25 to 50 (≈ 63.4 to 127 µM) | 50 to 100 (≈ 127 to 254 µM) | No Sedation | MED 10 mg/kg | 2 | ≦100 nM | MED 0.1 mg/kg | MED 0.1 mg/kg
Cc1nc2ccc(NC3Cc4ccccc4C3)cc2c(-c2ccccc2)c1C(=O)N1CCOCC1 [Example 2] | – | – | – | – | – | – | – | – | MED 10 mg/kg
